Source: PMC9552147 (Nature Communications, 2022)
pIC50: −log10 of the molar value. In brackets after ≈: the same amount, converted by molar mass. Several values for one entry are separate records, joined by “and”; a condition that tells them apart may be missing. Equal values may be shown once. Read-outs that look alike come from different tables or passages of the source.

Experiments:
M. tuberculosis H37Rv [1] = test: microbe, parasite or virus in culture; type: cell-based, Mycobacterium tuberculosis; details: for MIC: Mycobacterium tuberculosis, H37RV
[2] = tested on: M. tuberculosis H37Rv:luc within THP1 monocytes; test: microbe, parasite or virus in culture; type: cell-based; details: Mycobacterium tuberculosis
HepG2 cells [3] = test: cells; type: cell-based; details: Homo sapiens
Experimental: (§1) Cells were trypsinized in 0.05% trypsin-EDTA (Gibco) and re-suspended in 10 mL growth medium. Cells were filtered through a 40 µm filter and seeded in collagen-coated 96-well plates (Life technologies #A11428-03) at 3500 cells/well in a volume of 170 µL/well with plates agitated upon cell addition to ensure even distribution. […] The plates were incubated an additional 72 h after which the medium was gently aspirated and replaced with 4% paraformaldehyde (100 µL/well) prepared in Dulbecco’s PBS. After 20 min fixation, the medium was removed, and wells washed three times with 200 µL/well PBS. Wells were treated for 5 min with 0.5% acetic acid (100 μL/well), wells were washed with 200 μL/well PBS and subsequently treated with permeabilization buffer (0.1 % Triton X-100) (100 μL/well) for 30 min. Buffer was removed and replaced with 2× blocking buffer from the ab110217 MitoBiogenesis™ In-Cell ELISA Kit (Abcam). After 2 h incubation, primary antibody was added (100 μl/well) in 1× blocking buffer per manufacturer’s recommendation except for the background control wells which received 100 μl/well 1× blocking buffer only. […] Alkaline phosphatase/horse radish peroxidase-labeled secondary antibody solution prepared according to the manufacturer’s instructions in 1× blocking buffer was added at 100 μl/well to all wells. After 1 h incubation, wells were washed 4 times with wash buffer (200 μl/well) followed by addition of 100 μl/well freshly prepared per manufacturer’s recommendation alkaline peroxidase development solution. […] The reagent was removed, and 100 μl/well horse radish peroxidase development solution added. […] The development solution was completely removed, and plates blotted to dryness after which 1× Janus green stain (50 μl/well) was added. […] Data was interpreted per manufacturer’s instructions and plotted in GraphPad Prism to calculate IC20 and IC50 values for Cox-I/SDHA and cell viability.

HepG2 cells [4] = tested on: HepG2 cells
[5] = tested on: COX1 production (mitochondrial ribosomes) in HepG2 cells; details: for COX1 production: human; for pIC50: read-out: Cox IC50
Experimental: as §1

[6] = tested on: SDHA production (cytoplasmic ribosomes) in HepG2 cells
Experimental: as §1

HepG2 cells [7] = test: cells; details: Homo sapiens
[8] = tested on: COX1 production (mitochondrial ribosomes) in HepG2 cells; test: cells; details: Homo sapiens
Experimental: as §1

[9] = tested on: SDHA production (cytoplasmic ribosomes) in HepG2 cells; test: cells; details: Homo sapiens
Experimental: as §1

in vitro = details: human, HepG2 IC50 (cytotoxicity)
[10] = tested on: lysine biosynthetic pathway metabolites in M. tuberculosis; type: cell-based, Mycobacterium tuberculosis
M. tuberculosis H37Rv [11] = tested on: M. tuberculosis H37Rv
M. tuberculosis H37Rv [12] = type: cell-based, Mycobacterium tuberculosis; design: MIC, No Lysine / MIC, No Lysine, Ave: unit not given beside the values
M. tuberculosis H37Rv [13] = tested on: M. tuberculosis H37Rv; design: species or system C57BL/6 mice; details: in vivo, 30 mg/kg
M. tuberculosis = tested on: M. tuberculosis; design: species or system C57BL/6 mice; details: in vivo, 100 mg/kg
M. tuberculosis H37Rv [14] = tested on: M. tuberculosis H37Rv; design: species or system BALB/c mice; details: in vivo

## Nc1cc2c(c(F)n1)C(=O)N(C1CCCCC1)C2 [Compound 2]
M. tuberculosis H37Rv [1]
  WT MIC: 0.74 µM
M. tuberculosis H37Rv [1]; read-out: MIC (µM), single replicate
  MIC: 0.6 µM (≈ 0.15 µg/mL)
M. tuberculosis H37Rv [1]; read-out: MIC, Geo Mean
  MIC: 0.6 µM (≈ 0.15 µg/mL)
M. tuberculosis H37Rv [1]; read-out: MIC, Mean
  MIC: 0.6 µM (≈ 0.15 µg/mL)
M. tuberculosis H37Rv [1]; read-out: MIC, Median
  MIC: 0.6 µM (≈ 0.15 µg/mL)
M. tuberculosis H37Rv [1]; read-out: WT MIC
  MIC: 0.89 µM (≈ 0.222 µg/mL)
M. tuberculosis H37Rv [1]; read-out: WT MIC, Ave
  MIC: 0.82 µM (≈ 0.204 µg/mL)
[2]
  MIC: 0.71 µM (≈ 0.177 µg/mL)
HepG2 cells [3]; HepG2, read-out: JG IC50, Ave
  pIC50: 5.48
HepG2 cells [4]
  pIC50: 5.10
[5]
  COX1 production: blocked expression of both COX1 and SDHA
  pIC50: 5.45 and 5.34 and 5.46
[6]; human
  SDHA production: blocked expression of both COX1 and SDHA
[6]; read-out: SDH-A IC50
  pIC50: 5.54 and 5.45 and 5.41
HepG2 cells [7]; HepG2, read-out: IC50 (µM), Geo Mean
  IC50: 10.7 µM
HepG2 cells [7]; HepG2, read-out: IC50 (µM), Mean
  IC50: 11.8 µM
[8]; HepG2, read-out: Cox IC50
  pIC50: 5.57
[8]; HepG2, read-out: Cox IC50, Ave
  pIC50: 5.44
[9]; HepG2, read-out: SDH-A IC50
  pIC50: 5.52
[9]; HepG2, read-out: SDH-A IC50, Ave
  pIC50: 5.48
In vitro
  pIC50: 4.96

## Nc1ncc2c(n1)CC(C1CCC1)C2=O (centres unmarked) [Compound 9]
[10]
  Acetyl-amino-oxopimelate, Raw data: 6696.89 and 6125.64 and 5614.65
  Acetyl-aminoadipate, Raw data: 373220.66 and 356398.25 and 363487.19
  Acetyl-diaminopimelate, Raw data: 268291.72 and 294087.29 and 265596.05
  Allysine, Raw data: 6339.98 and 6256.07 and 3388.68
  Amino-oxoheptanedioate, Raw data: 67628.76 and 66386.61 and 73890.51
  Aminoadipate, Raw data: 230713.39 and 278620.19 and 273252.31
  Glutamic acid, Raw data: 95052793.71 and 89933952.73 and 93441271.33
  Lysine or Methylornithine, Raw data: 376867.18 and 321105.18 and 351101.87
  Saccharopine, Raw data: 4344892.84 and 4372904.79 and 3935929.36
  Succinyl-diaminopimelate, Raw data: 61950.05 and 84823.10 and 63130.16
  diaminopimelate, Raw data: 182757.00 and 205469.42 and 201059.38

## CC(=O)NC[C@H]1CN(c2ccc(N3CCOCC3)c(F)c2)C(=O)O1 [Linezolid, linezolid]
HepG2 cells [3]; HepG2, read-out: JG IC50
  pIC50: < 4.00
[5]
  COX1 production: selective inhibition of COX1 production
M. tuberculosis H37Rv [11]
  CFU/ml, Day 0: 103000 CFU/ml
  CFU/ml, Day 2: 400000 CFU/ml and 600000 CFU/ml
  CFU/ml, Day 4: 140000 CFU/ml and 70000 CFU/ml
  CFU/ml, Day 7: 70000 CFU/ml and 53000 CFU/ml
  CFU/ml, Day 14: 8600 CFU/ml and 7100 CFU/ml
[9]; HepG2, read-out: SDH-A IC50
  pIC50: < 4.00

## COc1c(N2C[C@@H]3CCCN[C@@H]3C2)c(F)cc2c(=O)c(C(=O)O)cn(C3CC3)c12 [Moxifloxacin]
M. tuberculosis H37Rv [12]
  MIC, +1mM Lysine: 2.04 and 3.47
  MIC, +1mM Lysine, Ave: 2.75
  MIC, No Lysine: 1.02 and 1.45
  MIC, No Lysine, Ave: 1.23
M. tuberculosis H37Rv [13]
  logCFUs per mouse (lungs): 3.2 logCFUs per mouse and 3.3 logCFUs per mouse (2×) and 2.4 logCFUs per mouse and 2.9 logCFUs per mouse and 3.5 logCFUs per mouse and 3.8 logCFUs per mouse (2×) and 2.6 logCFUs per mouse
  logCFUs per mouse (lungs), Mean: 3 logCFUs per mouse and 3.4 logCFUs per mouse
M. tuberculosis
  logCFUs per mouse (lungs): 2.5 logCFUs per mouse (2×) and 2.3 logCFUs per mouse and 1.9 logCFUs per mouse and 2.2 logCFUs per mouse
  logCFUs per mouse (lungs), Mean: 2.3 logCFUs per mouse

## O=[N+]([O-])c1cn2c(n1)OC[C@@H](OCc1ccc(OC(F)(F)F)cc1)C2 [Pa, pretomanid]
M. tuberculosis H37Rv [14]
  logCFUs per mouse (lungs): 4.68 logCFUs per mouse and 4.53 logCFUs per mouse and 4.19 logCFUs per mouse and 4.48 logCFUs per mouse and 4.10 logCFUs per mouse
  logCFUs per mouse (lungs), Mean: 4.4 logCFUs per mouse
M. tuberculosis H37Rv [14]; mouse
  change in lung CFU over the treatment period: significant decrease in CFU

## CO[C@H]1/C=C/O[C@@]2(C)Oc3c(C)c(O)c4c(O)c(c(/C=N/N5CCN(C)CC5)c(O)c4c3C2=O)NC(=O)/C(C)=C\C=C\[C@H](C)[C@H](O)[C@@H](C)[C@@H](O)[C@@H](C)[C@H](OC(C)=O)[C@@H]1C [Rifampicin, rifampicin]
M. tuberculosis H37Rv [11]
  CFU/ml, Day 0: 103000 CFU/ml
  CFU/ml, Day 2: 270000 CFU/ml and 190000 CFU/ml
  CFU/ml, Day 7: 5000 CFU/ml and 5100 CFU/ml
  CFU/ml, Day 14: 440 CFU/ml and 430 CFU/ml

## O=C(N[C@H](CO)[C@H](O)c1ccc([N+](=O)[O-])cc1)C(Cl)Cl [chloramphenicol]
HepG2 cells [3]; HepG2, read-out: JG IC50
  pIC50: < 4.00
[5]
  COX1 production: selective inhibition of COX1 production
  pIC50: 5.35 and 5.40 and 5.31
[8]; HepG2, read-out: Cox IC50
  pIC50: 5.29
[8]; HepG2, read-out: Cox IC50, Ave
  pIC50: 5.34
[9]; HepG2, read-out: SDH-A IC50
  pIC50: < 4.00

## NNC(=O)c1ccncc1 [isoniazid]
M. tuberculosis H37Rv [12]
  MIC, +1mM Lysine: 2.82 and 2.63
  MIC, +1mM Lysine, Ave: 2.72
  MIC, No Lysine: 3.02 and 3.39
  MIC, No Lysine, Ave: 3.20
